What was measured:
B. burgdorferi = test: Borreliacidal assay of saliva alone versus saliva plus phospholipase A2 inhibitor OPC; type: cell-based, Borrelia burgdorferi; details: 24 hrs, A. americanum saliva plus OPC 5-40 μM; culture controls 79
Experimental: Gel filtration fractionation of A. americanum saliva produces individual fractions with borreliacidal activity. Saliva is fractionated into 11 molecular weight pools by gel filtration and then tested by a borreliacidal assay as described by Zeidner, et al. 2009. Briefly, A. americanum saliva is size fractionated on a Superdex 200 column run with 25 mM NaCl dissolved in 5 mM HEPES (pH 7.6) at a flow rate of 0.5 ml per minute. The separation is monitored at […]. Fractions are collected at 1 minute intervals into siliconized eppendorf tubes. Each collected fraction is subsequently concentrated to 100 μl using a SpeedVac. 50 μl aliquots of the fractions are pooled according to the major molecular weight peaks at between 2 and 10 fractions per pool. Each pool is subsequently concentrated to 50 μl using Micron-3K filters (Millipore, Billerica, Mass.).
Inhibition of A. americanum borreliacidal activity using oleyloxyethyl phosphorylcholine (OPC) identifies phospholipase A2 as an active component of A. americanum saliva. The borreliacidal assay of Example 6 is performed comparing saliva alone with saliva plus the phospholipase A2 inhibitor OPC. […]

[1] = system: B31 B. burgdorferi isolates; test: B. burgdorferi viability, live/dead BacLight staining counts; type: cell-based, Borrelia burgdorferi; details: 35° C., BSK-H, starting 155 live spirochetes per field
Experimental: Evaluation of PLA2 protein regulation of B. burgdorferi viability. Analyses of PLA2 protein is performed essentially as described by Ledin, K. E., et al., Med. Vet. Entomol., 2005; 19(1):90-95, the contents of which are incorporated herein by reference. Frozen stocks of low-passage B31 B. burgdorferi isolates (Shelter Island, N.Y.) are reconstituted in BSK-H culture medium and maintained at 35° C. to log phase (Piesman, 1993). Spirochete cultures are diluted with BSK-H to a density of 4.7×10^7 viable spirochetes per mL as counted in a Petroff-Hauser chamber under dark-field microscopy, and distributed in 15 μL aliquots into 0.7 mL tubes for a total of 7.05×10^5 spirochetes per tube. A mean starting concentration of 155 live spirochetes per field is assessed prior to the addition of specific treatments. Each 15 μL aliquot of spirochetes in BSK-His treated with either 15 μL of sterile PBS, 15 μL of 1.33 mg/mL pilocarpine (based on the mid-range of pilocarpine found in previous analysis of tick saliva, (Ribeiro et al., 2004) in sterile PBS, or 15 μL of tick saliva, and incubated at 35° C. 10 μL samples taken from each of 10 prepared cultures and assessed for spirochete survival at 0, 24 and 48 h. Time points for spirochete survival assessment are chosen based on previous observations of post-feeding decreases in spirochete-positive ticks (Ryder et al., 1992). […]

Row | Compound | percent control live spirochetes (B. burgdorferi) | average number of live spirochetes (mean) ([1]; 24 h post-exposure) | average number of live spirochetes (mean) ([1]; 48 h post-exposure)
1 | CCCCCCCC/C=C\CCCCCCCCOCCOP(=O)([O-])OCC[N+](C)(C)C [OPC, oleyloxyethyl phosphorylcholine] | 76-78% | – | –
2 | CC[C@@H]1C(=O)OC[C@@H]1Cc1cncn1C [pilocarpine] | – | 82.1 counts per 10 high powered (10 | 58.2 counts per 10 high powered (10

Source: patent US9468208B2, “Disease control with tick phospholipase A2” (The United States of America, as represented by the …, priority 2009, dated 2016)
